Here are results for 7 compounds from paper PMC8151276, “An Integrated Approach toward NanoBRET Tracers for Analysis of GPCR Ligand Engagement” (Molecules, 2021).

Holding throughout (type): binding
One experiment concerns the target T1, ADRB1 (Homo sapiens, UniProt P08588).
T1 construct: purchased Promega (in-house HiBiT-GPCR construct library, NanoBRET)
Put plainly: NanoBRET screen HiBiT-ADRB1 in HEK293. On the technique in general: BRET reads energy transfer from a luciferase to a nearby fluorophore.

For a further experiment, the target named is T2, GALR1 (Homo sapiens, UniProt P47211).
T2 construct: purchased Promega (in-house HiBiT-GPCR construct library, NanoBRET)
T2 sequence (P47211 1-349): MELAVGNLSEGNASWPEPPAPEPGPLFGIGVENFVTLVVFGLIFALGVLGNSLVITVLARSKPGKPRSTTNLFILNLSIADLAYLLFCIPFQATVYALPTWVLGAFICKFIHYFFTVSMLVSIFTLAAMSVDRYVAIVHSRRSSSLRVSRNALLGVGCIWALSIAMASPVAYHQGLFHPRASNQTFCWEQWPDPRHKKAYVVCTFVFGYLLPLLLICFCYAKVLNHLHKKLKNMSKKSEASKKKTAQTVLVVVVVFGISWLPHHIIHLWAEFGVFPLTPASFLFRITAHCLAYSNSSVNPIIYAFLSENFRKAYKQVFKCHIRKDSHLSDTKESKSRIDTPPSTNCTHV
As to the kind of experiment: NanoBRET screen HiBiT-GALR1 in HEK293. As to the method:
(§1) Each tracer candidate was screened across the entire library of HiBiT-GPCR constructs using NanoBRET as the detection modality. As depicted in Figure 4A, the specificity of interactions was evaluated through decrease in BRET due to competitive displacement of a bound tracer by excess parental compound. Each tracer was analyzed for binding to each HiBiT-GPCR fusion in the absence and in the presence of competing parental compound. Briefly, HEK293 cells were transfected with HiBiT-GPCR constructs diluted into promoterless DNA to reduce expression and maximize translocation to the cell surface. Each tracer candidate was then screened at concentrations of 1 μM and 0.1 μM across cells expressing these fusions. Cells were treated for 1.5 h with tracer either alone or in the presence of 20 μM competing parental compound (i.e., control). BRET was measured upon addition of purified LgBiT and subsequent complementation with HiBiT genetically fused to a GPCR. The specificity of interactions was assessed through a decrease in BRET signal due to competitive displacement of the bound tracer. To further gauge the robustness of these interactions, the fold response over the control (i.e., BRETtracer/BRETcontrol) was calculated. We chose a 1.5-fold response, which translates to ≥7-fold signal over noise as the minimal threshold required to score an interaction as positive. […]. Below we highlight the screening results obtained for our exemplary fluorescent tracers based on Clozapine, Amitriptyline and AZD1283.
(§2) HiBiT-GPCR DNA constructs were diluted in 10 mM Tris pH 8 to a final concentration of 0.01 μg/μL, arrayed in 96-well plates and stored at −20 °C. For transfection, HEK293 cells were suspended in Opti-MEM (without phenol red) supplemented with 2% fetal bovine serum (Seradigm) and 100 units/mL penicillin–streptomycin (Gibco) at a final concentration of 220,000 cells/mL and dispensed into white 96-well plates at 90 μL/well. Subsequent transfections and screens were carried using an Agilent Bravo Automated Liquid Handling Platform. First, the 96-well HiBiT DNA arrays were diluted 25-fold in Opti-MEM (without serum or phenol red) to a final concentration of 0.0004 μg/μL and 20 μL of the diluted DNAs were transferred into new 96-well plates. Next, promoterless carrier DNA (1 μg/μL) was diluted 25-fold (0.04 μg/μL) and then dispensed into the diluted arrays at 20 μL/well. Following brief mixing, Viafect transfection reagent (Promega) diluted 16-fold into Opti-MEM was dispensed into the plates at 40 μL/well. After mixing by pipetting, plates were incubated for 10 min on the pipetting station deck. The DNA-transfection reagent complexes were then added to plates containing cells. To facilitate the screen, 10 μL of DNA-transfection reagent complexes were added in duplicates to the top 4 and bottom 4 rows, resulting in two identical 48-well arrays per plate. Plates with transfected cells were incubated for 18–20 h at 37 °C/5% CO2. A screen of each tracer across the entire library using two different concentrations requires duplicate plates of transfected cells. Depending on the number of tracers being screened, transfections can be scaled up using the same ratios. The next day, for each tracer, four 20× screening solutions in tracer dilution buffer (Promega) were prepared: two duplicates at final concentration of 20 μM and two duplicates at a final concentration of 2 μM. A competing unmodified compound was added to one of each duplicate at a final concentration of 400 μM. The four resulting solutions were diluted 4-fold in Opti-MEM without serum or phenol red to generate 5× solutions (5 µM and 0.5 µM tracer +/− 100 μM competing compound). To screen the library, a BioTek MultiFlo FX liquid dispenser was used to dispense 22.5 µL of tracer solution to the top 4 rows and 22.5 µL tracer + competing compound solution to the 4 bottom rows. Plates were briefly mixed on an orbital shaker and incubated for 1.5 h at room temperature. […]

In another experiment the target is T3, HTR5A (Homo sapiens, UniProt P47898).
T3 construct: purchased Promega (in-house HiBiT-GPCR construct library, NanoBRET)
Put plainly: NanoBRET screen HiBiT-HTR5A in HEK293. The protocol:
as §1, §2

For another experiment, the target named is T4, AVPR1B (Homo sapiens, UniProt P47901).
T4 construct: purchased Promega (in-house HiBiT-GPCR construct library, NanoBRET)
T4 sequence (P47901 1-424): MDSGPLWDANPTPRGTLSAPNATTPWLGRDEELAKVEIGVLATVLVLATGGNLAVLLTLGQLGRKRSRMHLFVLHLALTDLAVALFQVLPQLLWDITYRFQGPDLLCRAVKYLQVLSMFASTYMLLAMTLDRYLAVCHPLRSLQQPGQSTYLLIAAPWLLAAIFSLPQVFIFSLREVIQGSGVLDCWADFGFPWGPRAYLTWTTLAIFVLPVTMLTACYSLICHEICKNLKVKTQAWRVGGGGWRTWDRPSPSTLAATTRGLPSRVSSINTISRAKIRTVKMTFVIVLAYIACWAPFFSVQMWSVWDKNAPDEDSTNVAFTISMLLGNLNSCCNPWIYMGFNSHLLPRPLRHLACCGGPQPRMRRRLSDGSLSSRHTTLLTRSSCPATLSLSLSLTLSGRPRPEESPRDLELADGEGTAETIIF
Put plainly: NanoBRET screen HiBiT-AVPR1B in HEK293. As to the method: as §1, §2

A further experiment addresses T5, CCR9 (Homo sapiens, UniProt P51686).
T5 construct: purchased Promega (in-house HiBiT-GPCR construct library, NanoBRET)
T5 sequence (P51686 1-369): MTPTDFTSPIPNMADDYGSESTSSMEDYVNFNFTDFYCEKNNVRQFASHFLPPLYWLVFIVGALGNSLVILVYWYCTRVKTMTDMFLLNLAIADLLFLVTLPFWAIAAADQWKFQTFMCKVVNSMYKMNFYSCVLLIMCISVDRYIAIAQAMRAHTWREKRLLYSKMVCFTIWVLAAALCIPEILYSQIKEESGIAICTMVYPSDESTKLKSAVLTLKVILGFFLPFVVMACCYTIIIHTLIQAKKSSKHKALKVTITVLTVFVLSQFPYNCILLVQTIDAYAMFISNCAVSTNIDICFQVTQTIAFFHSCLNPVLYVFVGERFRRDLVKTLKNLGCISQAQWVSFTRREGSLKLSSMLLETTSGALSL
As to the kind of experiment: NanoBRET screen HiBiT-CCR9 in HEK293. As to the method: as §1, §2

Setting [1] is: tracer at 1μM, listed as amitriptyline-b-2-NB590.
The mark [2] stands for this setting: tracer at 0.1μM, listed as amitriptyline-b-2-NB590.

T1 sequence (P08588 whole entry): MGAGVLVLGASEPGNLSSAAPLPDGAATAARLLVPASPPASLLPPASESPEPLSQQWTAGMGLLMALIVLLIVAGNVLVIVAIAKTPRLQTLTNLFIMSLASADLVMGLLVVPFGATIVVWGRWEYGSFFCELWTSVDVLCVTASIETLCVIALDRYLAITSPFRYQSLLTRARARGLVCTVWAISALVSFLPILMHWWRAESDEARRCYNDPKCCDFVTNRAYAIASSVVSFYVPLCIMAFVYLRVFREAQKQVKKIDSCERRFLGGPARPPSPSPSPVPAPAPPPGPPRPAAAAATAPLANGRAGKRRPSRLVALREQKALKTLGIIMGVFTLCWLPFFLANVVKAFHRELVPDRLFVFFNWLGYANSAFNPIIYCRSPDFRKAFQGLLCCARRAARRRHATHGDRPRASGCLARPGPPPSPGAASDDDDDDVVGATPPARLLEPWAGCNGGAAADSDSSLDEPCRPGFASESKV
T3 sequence (P47898 whole entry): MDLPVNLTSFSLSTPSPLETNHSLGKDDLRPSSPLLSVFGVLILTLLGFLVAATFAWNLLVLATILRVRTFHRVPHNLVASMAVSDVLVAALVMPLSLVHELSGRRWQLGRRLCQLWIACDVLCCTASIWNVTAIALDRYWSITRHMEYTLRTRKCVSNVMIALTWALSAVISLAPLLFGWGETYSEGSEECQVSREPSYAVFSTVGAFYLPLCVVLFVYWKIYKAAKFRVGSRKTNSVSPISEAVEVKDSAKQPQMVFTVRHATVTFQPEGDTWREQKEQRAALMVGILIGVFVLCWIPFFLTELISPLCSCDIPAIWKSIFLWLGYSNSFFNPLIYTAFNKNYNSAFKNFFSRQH

As to `CC(C)N(CC[C@H](c1ccccc1)c1cc(CCNC(=O)c2ccc(CNC(=O)CCc3ccc4n3[B-](F)(F)[N+]3=C(c5ccc[nH]5)C=CC3=C4)cc2)ccc1O)C(C)C` [Tolterodine-BZ-NB590], the “NanoBRET Fold Response” value on ADRB1 (ADRB1, tracer 0.1μM) worked out at 1.02; on ADRB1 (ADRB1, tracer 1μM), 1.10; at GALR1 (GALR1, tracer 0.1μM) it was 0.95; at GALR1 (GALR1, tracer 1μM), 1.07; on HTR5A (HTR5A, tracer 0.1μM) it was 0.98; on HTR5A (HTR5A, tracer 1μM), 1.03. Further, the “NanoBRET Fold Response” value amounted to 0.85 on AVPR1B (AVPR1B, tracer 0.1μM); 0.94 at AVPR1B (AVPR1B, tracer 1μM); 0.74 at CCR9 (CCR9, tracer 0.1μM); 1.14 at CCR9 (CCR9, tracer 1μM).
Regarding `O=C(CCc1ccc2n1[B-](F)(F)[N+]1=C(c3ccc[nH]3)C=CC1=C2)NCCOCCOCCNC(=O)OCCOCCN1CCN(C2=Nc3ccccc3Sc3ccccc32)CC1` [Quetiapine-a-2-NB590], the “NanoBRET Fold Response” value on ADRB1 (ADRB1, tracer 0.1μM) stood at 1.00; on ADRB1 (ADRB1, tracer 1μM), 0.91; at GALR1 (GALR1, tracer 0.1μM) it was 1.02; at GALR1 (GALR1, tracer 1μM), 0.76; at HTR5A (HTR5A, tracer 0.1μM) it was 0.96; at HTR5A (HTR5A, tracer 1μM) it was 0.99. For the same compound, the “NanoBRET Fold Response” value on AVPR1B (AVPR1B, tracer 0.1μM) was found to be 0.86; on AVPR1B (AVPR1B, tracer 1μM), 1.01; on CCR9 (CCR9, tracer 0.1μM), 1.05; on CCR9 (CCR9, tracer 1μM), 0.96.
With `Cc1cc2c(s1)Nc1ccccc1N=C2N1CCN(CCCNC(=O)CCOCCOCCOCCOCCNC(=O)CCc2ccc3n2[B-](F)(F)[N+]2=C(c4ccc[nH]4)C=CC2=C3)CC1` [Olanzapine-a-2-NB590], the “NanoBRET Fold Response” value was found to be 1.01 at ADRB1 (ADRB1, tracer 0.1μM); 0.97 on ADRB1 (ADRB1, tracer 1μM); 1.03 on GALR1 (GALR1, tracer 0.1μM); 1.09 at GALR1 (GALR1, tracer 1μM); 1.06 at HTR5A (HTR5A, tracer 0.1μM); 1.03 on HTR5A (HTR5A, tracer 1μM). Moreover, the “NanoBRET Fold Response” value came to 1.03 on AVPR1B (AVPR1B, tracer 0.1μM); 1.17 on AVPR1B (AVPR1B, tracer 1μM); 1.03 on CCR9 (CCR9, tracer 0.1μM); 1.17 at CCR9 (CCR9, tracer 1μM).
On to `CN(C)CCC=C1c2ccccc2CCc2ccc(C(=O)NCCNC(=O)CCOCCOCCOCCOCCNC(=O)CCc3ccc4n3[B-](F)(F)[N+]3=C(c5ccc[nH]5)C=CC3=C4)cc21` [Amitriptyline-b-2-NB590], for which the “NanoBRET Fold Response” value was found to be 0.96 at ADRB1 (setting [1]); 0.98 on GALR1 (setting [2]); 1.03 on GALR1 (setting [1]); 1.22 at HTR5A (setting [2]); 1.26 at HTR5A (setting [1]); 0.84 at AVPR1B (setting [2]). For the same compound, the “NanoBRET Fold Response” value on AVPR1B (setting [1]) is 1.18; at CCR9 (setting [2]), 0.81; on CCR9 (setting [1]) it was 0.84.
Consider `O=C(CCOCCOCCOCCOCCNC(=O)CCc1ccc2n1[B-](F)(F)[N+]1=C(c3ccc[nH]3)C=CC1=C2)NCCCN1CCN(C2=Nc3cc(Cl)ccc3Nc3ccccc32)CC1` [Clozapine-a-2-NB590], for which the “NanoBRET Fold Response” value at ADRB1 (ADRB1, 0.1μM tracer) worked out at 0.95; at ADRB1 (ADRB1, 1μM tracer) it was 0.94; at GALR1 (GALR1, 0.1μM tracer), 1.05; at GALR1 (GALR1, 1μM tracer) it was 1.09; on HTR5A (HTR5A, 0.1μM tracer) it was 1.11; on HTR5A (HTR5A, 1μM tracer), 1.29. Also, the “NanoBRET Fold Response” value at AVPR1B (AVPR1B, 0.1μM tracer) came to 0.98; on AVPR1B (AVPR1B, 1μM tracer) it was 0.97; at CCR9 (CCR9, 0.1μM tracer) it was 1.03; at CCR9 (CCR9, 1μM tracer), 1.05.
Take `CN1CCN(C2=Nc3cc(Cl)ccc3Nc3ccc(CNC(=O)CCOCCOCCOCCOCCNC(=O)CCc4ccc5n4[B-](F)(F)[N+]4=C(c6ccc[nH]6)C=CC4=C5)cc32)CC1` [Clozapine-b-2-NB590]: the “NanoBRET Fold Response” value on ADRB1 (ADRB1, 0.1μM tracer) is given as 0.99; on ADRB1 (ADRB1, 1μM tracer) it was 1.02; at GALR1 (GALR1, 0.1μM tracer) it was 0.99; at GALR1 (GALR1, 1μM tracer) it was 0.99; at HTR5A (HTR5A, 0.1μM tracer) it was 1.07; at HTR5A (HTR5A, 1μM tracer), 1.35. Further, the “NanoBRET Fold Response” value at AVPR1B (AVPR1B, 0.1μM tracer) turned out to be 0.98; at CCR9 (CCR9, 0.1μM tracer), 1.01; at CCR9 (CCR9, 1μM tracer), 0.92.
On to `Cc1nc2n(c(=O)c1CCN1CCC(c3noc4cc(F)ccc34)CC1)CCCC2OC(=O)NCCOCCOCCOCCOCCNC(=O)CCc1ccc2n1[B-](F)(F)[N+]1=C(c3ccc[nH]3)C=CC1=C2` (centres unmarked) [Risperidone-2-NB590], for which the “NanoBRET Fold Response” value at ADRB1 (ADRB1, tracer 0.1μM) was 0.98; at ADRB1 (ADRB1, tracer 1μM), 1.05; on GALR1 (GALR1, tracer 0.1μM), 1.00; on GALR1 (GALR1, tracer 1μM), 0.99; on HTR5A (HTR5A, tracer 0.1μM) it was 1.03; on HTR5A (HTR5A, tracer 1μM) it was 1.28. The “NanoBRET Fold Response” value on AVPR1B (AVPR1B, tracer 0.1μM) amounted to 1.06; on AVPR1B (AVPR1B, tracer 1μM), 0.98; on CCR9 (CCR9, tracer 0.1μM), 1.02; on CCR9 (CCR9, tracer 1μM), 0.94.
